Results from patent US20220389061A1, “IMMUNOMODULATORS” (priority 2019, published 2022).
Where two headings read alike, the source gives them in different places. Starred links: 1 amine or outer side, 2 acyl side, 3 side chain; linkers in the order of their positions; H or OH if unused. Positions of bridges follow the written chain, without caps; N, C: chain ends. Non-standard residues stand in square brackets, D forms with d. Residues, ends and D or L forms follow the SMILES beside them. Groups on a side chain read outwards from the residue. *: point of attachment. Trp(1-CH2CO2Me) = COC(=O)Cn1cc(C[C@H](N)C(=O)O)c2ccccc21; Trp(1-CH2COOH) = N[C@@H](Cc1cn(CC(=O)O)c2ccccc12)C(=O)O; X66 = O=C([C@H](CCN/C(=N/c1ccccc1)c1ccccc1)N[*:1])[*:2]; X57 = O=C([C@H](CN/C(=N/c1ccccc1)c1ccccc1)N[*:1])[*:2]; NH(2-CF3-phenyl) = FC(F)(F)c1ccccc1N*; X67 = S=C(Nc1c(Cl)c(Cl)cc(Cl)c1Cl)*; X75 = S=C(Nc1ccc(C2CC2)c2ccccc12)*; X49 = N#Cc1ccccc1NC(=N)c1ccccc1N*; Hyp = O=C(O)[C@@H]1C[C@@H](O)CN1; X72 = COc1ccc2nccc(C(=O)*)c2c1; X29 = c1ccc(Oc2ccc(N*)cc2)cc1; NMeNle = CCCC[C@H](NC)C(=O)O; X22 = c1ccc(N(c2ccccc2)*)cc1; X12 = S=C(Nc1ccc2ccccc2c1)*; X2 = c1ccc(-c2ccccc2N*)cc1; X74 = Cc1cc(C)c(N*)c(C)c1; NMeA = CN[C@@H](C)C(=O)O; Dab = NCC[C@H](N)C(=O)O; Dap = NC[C@H](N)C(=O)O; X89 = O=C(Oc1ccccc1)*; CO = O=C([*:1])[*:2]

Molecular target: T1, PD-1/PD-L1 (Homo sapiens, UniProt Q9NZQ7)
T1 construct: TVMV protease site linker (C); made in house; host or cells: HEK293T cells
T1 sequence (Q9NZQ7 18-239): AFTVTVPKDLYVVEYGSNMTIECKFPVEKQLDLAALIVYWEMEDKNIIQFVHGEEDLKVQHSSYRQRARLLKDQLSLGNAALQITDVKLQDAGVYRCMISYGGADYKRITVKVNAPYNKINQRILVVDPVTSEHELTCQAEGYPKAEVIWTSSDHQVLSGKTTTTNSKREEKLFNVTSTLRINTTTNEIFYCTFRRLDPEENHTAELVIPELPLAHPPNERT
Test: PD-1/PD-L1 Homogenous Time-Resolved Fluorescence (HTRF) binding assay
How it was run: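 HTRF read-out using europium cryptate anti-Ig (1 nM) and APC anti-His (20 nM) on extracellular-domain fusion proteins in dPBS/0.1% BSA/0.05% Tween-20. Inhibitor first incubated 15 min with 10 nM PD-L1-His, followed by 20 nM PD-1-Ig for another 15 min.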

[1] = PD-L1-His 10 nM pre-incubated with inhibitor, PD-1-Ig 20 nM, read-out: HTRF IC50

## CCCC[C@H]1C(=O)N(C)[C@@H](CCCC)C(=O)N[C@@H](CC(C)C)C(=O)N[C@H](C(=O)NCC(N)=O)CSCC(=O)N[C@@H](Cc2ccc(O)cc2)C(=O)N(C)[C@@H](C)C(=O)N[C@@H](CC(N)=O)C(=O)N2CCC[C@H]2C(=O)N[C@@H](CNC(=O)Nc2ccccc2-c2ccccc2)C(=O)N[C@@H](CC(C)C)C(=O)N2C[C@H](O)C[C@H]2C(=O)N[C@@H](Cc2c[nH]c3ccccc23)C(=O)N[C@@H](CCN)C(=O)N[C@@H](Cc2cn(CC(=O)O)c3ccccc23)C(=O)N1C [Example 1062] ({CH2CO}-Y[NMeA]NP[Dap]([CO-X2])L[Hyp]W[Dab][Trp(1-CH2COOH)][NMeNle][NMeNle]LCG-NH2; thioether N-14)
  IC50: 3.4 nM

## CCCC[C@H]1C(=O)N(C)[C@@H](CCCC)C(=O)N[C@@H](CC(C)C)C(=O)N[C@H](C(=O)NCC(N)=O)CSCC(=O)N[C@@H](Cc2ccc(O)cc2)C(=O)N(C)[C@@H](C)C(=O)N[C@@H](CC(N)=O)C(=O)N2CCC[C@H]2C(=O)N[C@@H](CNC(=O)c2ccnc3ccc(OC)cc23)C(=O)N[C@@H](CC(C)C)C(=O)N2C[C@H](O)C[C@H]2C(=O)N[C@@H](Cc2c[nH]c3ccccc23)C(=O)N[C@@H](CCNC(=O)c2ccnc3ccc(OC)cc23)C(=O)N[C@@H](Cc2cn(CC(=O)OC)c3ccccc23)C(=O)N1C [Example 3010] ({CH2CO}-Y[NMeA]NP[Dap](X72)L[Hyp]W[Dab](X72)[Trp(1-CH2CO2Me)][NMeNle][NMeNle]LCG-NH2; thioether N-14)
[1]
  IC50: 7.8 nM

## CCCC[C@H]1C(=O)N(C)[C@@H](CCCC)C(=O)N[C@@H](CC(C)C)C(=O)N[C@H](C(=O)NCC(N)=O)CSCC(=O)N[C@@H](Cc2ccc(O)cc2)C(=O)N(C)[C@@H](C)C(=O)N[C@@H](CC(N)=O)C(=O)N2CCC[C@H]2C(=O)N[C@@H](CNC(=O)Nc2ccccc2C(F)(F)F)C(=O)N[C@@H](CC(C)C)C(=O)N2C[C@H](O)C[C@H]2C(=O)N[C@@H](Cc2c[nH]c3ccccc23)C(=O)N[C@@H](CCNC(=O)Nc2ccccc2C(F)(F)F)C(=O)N[C@@H](Cc2cn(CC(=O)O)c3ccccc23)C(=O)N1C [Example 1137] ({CH2CO}-Y[NMeA]NP[Dap]([CO-NH(2-CF3-phenyl)])L[Hyp]W[Dab]([CO-NH(2-CF3-phenyl)])[Trp(1-CH2COOH)][NMeNle][NMeNle]LCG-NH2; thioether N-14)
[1]
  IC50: 20 nM

## CCCC[C@H]1C(=O)N(C)[C@@H](CCCC)C(=O)N[C@@H](CC(C)C)C(=O)N[C@H](C(=O)NCC(N)=O)CSCC(=O)N[C@@H](Cc2ccc(O)cc2)C(=O)N(C)[C@@H](C)C(=O)N[C@@H](CC(N)=O)C(=O)N2CCC[C@H]2C(=O)N[C@@H](CNC(=S)Nc2c(Cl)c(Cl)cc(Cl)c2Cl)C(=O)N[C@@H](CC(C)C)C(=O)N2C[C@H](O)C[C@H]2C(=O)N[C@@H](Cc2c[nH]c3ccccc23)C(=O)N[C@@H](CCNC(=S)Nc2c(Cl)c(Cl)cc(Cl)c2Cl)C(=O)N[C@@H](Cc2cn(CC(=O)O)c3ccccc23)C(=O)N1C [Example 1134] ({CH2CO}-Y[NMeA]NP[Dap](X67)L[Hyp]W[Dab](X67)[Trp(1-CH2COOH)][NMeNle][NMeNle]LCG-NH2; thioether N-14)
[1]
  IC50: 2.4 nM

## CCCC[C@H]1C(=O)N(C)[C@@H](CCCC)C(=O)N[C@@H](CC(C)C)C(=O)N[C@H](C(=O)NCC(N)=O)CSCC(=O)N[C@@H](Cc2ccc(O)cc2)C(=O)N(C)[C@@H](C)C(=O)N[C@@H](CC(N)=O)C(=O)N2CCC[C@H]2C(=O)N[C@@H](CNC(=O)Nc2c(C)cc(C)cc2C)C(=O)N[C@@H](CC(C)C)C(=O)N2C[C@H](O)C[C@H]2C(=O)N[C@@H](Cc2c[nH]c3ccccc23)C(=O)N[C@@H](CCN)C(=O)N[C@@H](Cc2cn(CC(=O)O)c3ccccc23)C(=O)N1C [Example 1066] ({CH2CO}-Y[NMeA]NP[Dap]([CO-X74])L[Hyp]W[Dab][Trp(1-CH2COOH)][NMeNle][NMeNle]LCG-NH2; thioether N-14)
[1]
  IC50: 2.9 nM

## CCCC[C@H]1C(=O)N(C)[C@@H](CCCC)C(=O)N[C@@H](CC(C)C)C(=O)N[C@H](C(=O)NCC(N)=O)CSCC(=O)N[C@@H](Cc2ccc(O)cc2)C(=O)N(C)[C@@H](C)C(=O)N[C@@H](CC(N)=O)C(=O)N2CCC[C@H]2C(=O)N[C@@H](CNC(=O)Nc2ccccc2C(=N)Nc2ccccc2C#N)C(=O)N[C@@H](CC(C)C)C(=O)N2C[C@H](O)C[C@H]2C(=O)N[C@@H](Cc2c[nH]c3ccccc23)C(=O)N[C@@H](CCNC(=O)Nc2ccccc2C(=N)Nc2ccccc2C#N)C(=O)N[C@@H](Cc2cn(CC(=O)O)c3ccccc23)C(=O)N1C [Example 1087] ({CH2CO}-Y[NMeA]NP[Dap]([CO-X49])L[Hyp]W[Dab]([CO-X49])[Trp(1-CH2COOH)][NMeNle][NMeNle]LCG-NH2; thioether N-14)
[1]
  IC50: 2.6 nM

## CCCC[C@H]1C(=O)N(C)[C@@H](CCCC)C(=O)N[C@@H](CC(C)C)C(=O)N[C@H](C(=O)NCC(N)=O)CSCC(=O)N[C@@H](Cc2ccc(O)cc2)C(=O)N(C)[C@@H](C)C(=O)N[C@@H](CC(N)=O)C(=O)N2CCC[C@H]2C(=O)N[C@@H](CNC(=O)Nc2ccc(Oc3ccccc3)cc2)C(=O)N[C@@H](CC(C)C)C(=O)N2C[C@H](O)C[C@H]2C(=O)N[C@@H](Cc2c[nH]c3ccccc23)C(=O)N[C@@H](CCN)C(=O)N[C@@H](Cc2cn(CC(=O)O)c3ccccc23)C(=O)N1C [Example 1070] ({CH2CO}-Y[NMeA]NP[Dap]([CO-X29])L[Hyp]W[Dab][Trp(1-CH2COOH)][NMeNle][NMeNle]LCG-NH2; thioether N-14)
[1]
  IC50: 5.5 nM

## CCCC[C@H]1C(=O)N(C)[C@@H](CCCC)C(=O)N[C@@H](CC(C)C)C(=O)N[C@H](C(=O)NCC(N)=O)CSCC(=O)N[C@@H](Cc2ccc(O)cc2)C(=O)N(C)[C@@H](C)C(=O)N[C@@H](CC(N)=O)C(=O)N2CCC[C@H]2C(=O)N[C@@H](CN/C(=N/c2ccccc2)c2ccccc2)C(=O)N[C@@H](CC(C)C)C(=O)N2C[C@H](O)C[C@H]2C(=O)N[C@@H](Cc2c[nH]c3ccccc23)C(=O)N[C@@H](CCN/C(=N/c2ccccc2)c2ccccc2)C(=O)N[C@@H](Cc2cn(CC(=O)O)c3ccccc23)C(=O)N1C [Example 1017] ({CH2CO}-Y[NMeA]NP[X57]L[Hyp]W[X66][Trp(1-CH2COOH)][NMeNle][NMeNle]LCG-NH2; thioether N-14)
[1]
  IC50: 7.5 nM

## CCCC[C@H]1C(=O)N(C)[C@@H](CCCC)C(=O)N[C@@H](CC(C)C)C(=O)N[C@H](C(=O)NCC(N)=O)CSCC(=O)N[C@@H](Cc2ccc(O)cc2)C(=O)N(C)[C@@H](C)C(=O)N[C@@H](CC(N)=O)C(=O)N2CCC[C@H]2C(=O)N[C@@H](CNC(=O)Oc2ccccc2)C(=O)N[C@@H](CC(C)C)C(=O)N2C[C@H](O)C[C@H]2C(=O)N[C@@H](Cc2c[nH]c3ccccc23)C(=O)N[C@@H](CCNC(=O)Oc2ccccc2)C(=O)N[C@@H](Cc2cn(CC(=O)OC)c3ccccc23)C(=O)N1C [Example 1013] ({CH2CO}-Y[NMeA]NP[Dap](X89)L[Hyp]W[Dab](X89)[Trp(1-CH2CO2Me)][NMeNle][NMeNle]LCG-NH2; thioether N-14)
  IC50: 5.2 nM

## CCCC[C@H]1C(=O)N(C)[C@@H](CCCC)C(=O)N[C@@H](CC(C)C)C(=O)N[C@H](C(=O)NCC(N)=O)CSCC(=O)N[C@@H](Cc2ccc(O)cc2)C(=O)N(C)[C@@H](C)C(=O)N[C@@H](CC(N)=O)C(=O)N2CCC[C@H]2C(=O)N[C@@H](CNC(=S)Nc2ccc(C3CC3)c3ccccc23)C(=O)N[C@@H](CC(C)C)C(=O)N2C[C@H](O)C[C@H]2C(=O)N[C@@H](Cc2c[nH]c3ccccc23)C(=O)N[C@@H](CCNC(=S)Nc2ccc(C3CC3)c3ccccc23)C(=O)N[C@@H](Cc2cn(CC(=O)O)c3ccccc23)C(=O)N1C [Example 3058] ({CH2CO}-Y[NMeA]NP[Dap](X75)L[Hyp]W[Dab](X75)[Trp(1-CH2COOH)][NMeNle][NMeNle]LCG-NH2; thioether N-14)
[1]
  IC50: 13 nM

## CCCC[C@H]1C(=O)N(C)[C@@H](CCCC)C(=O)N[C@@H](CC(C)C)C(=O)N[C@H](C(=O)NCC(N)=O)CSCC(=O)N[C@@H](Cc2ccc(O)cc2)C(=O)N(C)[C@@H](C)C(=O)N[C@@H](CC(N)=O)C(=O)N2CCC[C@H]2C(=O)N[C@@H](CNC(=S)Nc2ccc3ccccc3c2)C(=O)N[C@@H](CC(C)C)C(=O)N2C[C@H](O)C[C@H]2C(=O)N[C@@H](Cc2c[nH]c3ccccc23)C(=O)N[C@@H](CCN)C(=O)N[C@@H](Cc2cn(CC(=O)O)c3ccccc23)C(=O)N1C [Example 3028] ({CH2CO}-Y[NMeA]NP[Dap](X12)L[Hyp]W[Dab][Trp(1-CH2COOH)][NMeNle][NMeNle]LCG-NH2; thioether N-14)
[1]
  IC50: 0.6 nM

## CCCC[C@H]1C(=O)N(C)[C@@H](CCCC)C(=O)N[C@@H](CC(C)C)C(=O)N[C@H](C(=O)NCC(N)=O)CSCC(=O)N[C@@H](Cc2ccc(O)cc2)C(=O)N(C)[C@@H](C)C(=O)N[C@@H](CC(N)=O)C(=O)N2CCC[C@H]2C(=O)N[C@@H](CNC(=S)Nc2ccc3ccccc3c2)C(=O)N[C@@H](CC(C)C)C(=O)N2C[C@H](O)C[C@H]2C(=O)N[C@@H](Cc2c[nH]c3ccccc23)C(=O)N[C@@H](CCNC(=S)Nc2ccc3ccccc3c2)C(=O)N[C@@H](Cc2cn(CC(=O)O)c3ccccc23)C(=O)N1C [Example 3014] ({CH2CO}-Y[NMeA]NP[Dap](X12)L[Hyp]W[Dab](X12)[Trp(1-CH2COOH)][NMeNle][NMeNle]LCG-NH2; thioether N-14)
[1]
  IC50: 4.9 nM

## CCCC[C@H]1C(=O)N(C)[C@@H](CCCC)C(=O)N[C@@H](CC(C)C)C(=O)N[C@H](C(=O)NCC(N)=O)CSCC(=O)N[C@@H](Cc2ccc(O)cc2)C(=O)N(C)[C@@H](C)C(=O)N[C@@H](CC(N)=O)C(=O)N2CCC[C@H]2C(=O)N[C@@H](CNC(=O)N(c2ccccc2)c2ccccc2)C(=O)N[C@@H](CC(C)C)C(=O)N2C[C@H](O)C[C@H]2C(=O)N[C@@H](Cc2c[nH]c3ccccc23)C(=O)N[C@@H](CCNC(=O)N(c2ccccc2)c2ccccc2)C(=O)N[C@@H](Cc2cn(CC(=O)OC)c3ccccc23)C(=O)N1C [Example 1004] ({CH2CO}-Y[NMeA]NP[Dap]([CO-X22])L[Hyp]W[Dab]([CO-X22])[Trp(1-CH2CO2Me)][NMeNle][NMeNle]LCG-NH2; thioether N-14)
[1]
  IC50: 23 nM
